Experimental findings from patent US10005779B2, “1′,4′-thio nucleosides for the treatment of HCV” (priority 2013, dated 2018) are described below.

As usually defined, the IC50 is the midpoint of a concentration-inhibition curve. Higher therefore signals a need for much substance. Broadly, the EC50 is the midpoint of the concentration-response curve. The CC50 is the concentration at which the toxic effect on the cells reaches its halfway point. The low end stands for harm at low concentration, the high end for better tolerance by the cells.

One data set concerns the target T1, wild-type HCV genotype 1b NS5B polymerase (Hepatitis C virus genotype 1b, UniProt Q9WMX2).
T1 construct: recombinant HCV polymerases (with a deletion of the 21 carboxy terminal amino acids); made in house
In words: HCV polymerase enzyme assay, wild-type. It is filed as biochemical.
Settings: not given
The text has this:
(§1) Test compounds in the form of nucleoside triphosphates were examined for inhibitory activity against purified HCV polymerase in a standard assay. Bacterial expression constructs encoding the approximately 65 kDa HCV genotype 1b NS5B protein were used to generate recombinant HCV polymerases (with a deletion of the 21 carboxy terminal amino acids). Both the wild-type genotype 1b protein and protein containing the S282T mutation were expressed and purified for use in the enzymatic activity assay.
(§2) The enzymatic activity assay measured the inhibitory effect of increasing concentrations of test compound on the incorporation of α-[^33P]-labeled nucleotide into trichloroacetic acid-precipitable material. Recombinant polymerase and synthetic RNA template were combined in reaction buffer containing ribonucleoside triphosphates, α-[^33P]-labeled nucleotide and eight concentrations of test compound in three-fold dilutions. Reactions were incubated for two hours at 30° C.
(§3) Reactions were terminated by the addition of ice-cold trichloroacetic acid and sodium pyrophosphate to promote precipitation of newly-synthesized ribonucleic acid. Precipitable material from the reactions was collected by filtration onto 96-well filter plates, washed extensively with water, and quantified by liquid scintillation.
(§4) The inhibitory activity of test compounds was determined by fitting results to dose-response curves using XLfit software.
On to `Nc1nc2c(ncn2[C@@H]2S[C@H](COP(=O)(O)OP(=O)(O)OP(=O)(O)O)[C@@H](O)[C@H]2O)c(=O)[nH]1` [Compound 203], for which the IC50 lay in the range of 0.25 to 1 µM.
On the same count and under the same terms, the value for `C[C@@]1(O)[C@H](O)[C@@H](COP(=O)(O)OP(=O)(O)OP(=O)(O)O)S[C@H]1n1ccc(=O)[nH]c1=O` [Compound 201] was 1 to 10 µM.
Same read-out and setting: with `O=c1ccn([C@@H]2S[C@H](COP(=O)(O)OP(=O)(O)OP(=O)(O)O)[C@@H](O)[C@H]2O)c(=O)[nH]1` [Compound 202] the figure was 0.25 to 1 µM.

The target in the next data set is T2, HCV genotype 1b NS5B polymerase containing the S282T mutation (Hepatitis C virus genotype 1b, UniProt Q9WMX2, S2701T).
T2 construct: recombinant HCV polymerases (with a deletion of the 21 carboxy terminal amino acids); made in house
Kind of data set: HCV polymerase enzyme assay, S282T mutant. It is filed as biochemical.
Settings: not given
Description: as §1, §2, §3, §4
Take `Nc1nc2c(ncn2[C@@H]2S[C@H](COP(=O)(O)OP(=O)(O)OP(=O)(O)O)[C@@H](O)[C@H]2O)c(=O)[nH]1` [Compound 203]: the IC50 lay within 1 to 10 µM.
The same measure, in the same setting: with `C[C@@]1(O)[C@H](O)[C@@H](COP(=O)(O)OP(=O)(O)OP(=O)(O)O)S[C@H]1n1ccc(=O)[nH]c1=O` [Compound 201] the figure was over 10 µM; with `O=c1ccn([C@@H]2S[C@H](COP(=O)(O)OP(=O)(O)OP(=O)(O)O)[C@@H](O)[C@H]2O)c(=O)[nH]1` [Compound 202], 0.25 to 1 µM.

In the next data set the test system is HCV genotype 1b replicon in Huh-7-derived cell line (Zluc). In words: microbe, parasite or virus in culture. The data set is classed as cell-based. The settings on record: Hepatitis C virus, 72 h, read-out: HCV Replicon EC50. Here is the method: Huh-7-derived cell line (Zluc) that harbors an HCV genotype 1b replicon and a luciferase reporter gene was grown in Dulbecco's Modified Eagle Medium (DMEM) supplemented with 10% fetal bovine serum, 2 mM GlutaMAX, 1% MEM nonessential amino acids, 100 IU/mL penicillin, 100 μg/mL streptomycin, and 0.5 mg/mL Geneticin® (G418). For dose response testing the cells were seeded in 96-well plates at 7.5×10^3 cells per well in a volume of 50 μL, and incubated at 37° C./5% CO2. Drug solutions were made up freshly in Huh-7 media as 2× stocks. Ten additional 5-fold dilutions were prepared from these stocks in DMEM without G418. At least three hours after Zluc cells were seeded, drug treatment was initiated by adding 50 μL of drug dilutions to the plates in duplicate. […] Cells were then incubated at 37° C./5% CO2. Alternatively, compounds were tested at two concentrations (1 μM and 10 μM). […] For this, media was removed from the plates via gentle tapping. Fifty microliters of ONE-glo luciferase assay reagent was added to each well. […] The EC50 values were calculated from dose response curves from the resulting best-fit equations determined by Microsoft Excel and XLfit 4.1 software.
(Replicon systems follow genome replication, usually without infectious particles.)
For the compound `CC(C)OC(=O)[C@H](C)NP(=O)(OC[C@H]1S[C@@H](n2ccc(=O)[nH]c2=O)[C@](C)(O)[C@@H]1O)Oc1ccccc1` (single isomer, unassigned) [1b diastereomer 1], the EC50 was over 10 µM.

The data set is the same for the next values; noted with them: Hepatitis C virus; Zluc cells, 72 hours of incubation, luciferase readout; read-out: HCV Replicon EC50.
On to `CC(C)OC(=O)[C@H](C)N[P@@](=O)(OC[C@H]1S[C@@H](n2ccc(=O)[nH]c2=O)[C@H](O)[C@@H]1O)Oc1ccccc1` [Compound 2bi], for which the EC50 is over 10 µM.
For the compound `CC(C)OC(=O)[C@H](C)NP(=O)(OCCSC(=O)C(C)(C)C)OC[C@H]1S[C@@H](n2ccc(=O)[nH]c2=O)[C@H](O)[C@@H]1O` (single isomer, unassigned) [4b diastereomer 1], the EC50 was over 10 µM.
Same read-out and setting: with `CC(C)OC(=O)[C@H](C)NP(=O)(OCCSC(=O)C(C)(C)C)OC[C@H]1S[C@@H](n2ccc(=O)[nH]c2=O)[C@H](O)[C@@H]1O` (mixture of isomers) [4b mixture of diastereomers] the figure was over 10 µM.
Same read-out and setting: with `CC(C)OC(=O)[C@H](C)N[P@](=O)(OC[C@H]1S[C@@H](n2ccc(=O)[nH]c2=O)[C@H](O)[C@@H]1O)Oc1ccccc1` [Compound 2bii] the figure was over 10 µM; with `CC(C)OC(=O)[C@@H](C)NP(=O)(OC[C@H]1S[C@@H](n2ccc(=O)[nH]c2=O)[C@H](O)[C@@H]1O)Oc1ccccc1` (mixture of isomers) [2a mixture of diastereomers], over 10 µM.
Same read-out and setting: with `CC(C)(C)C(=O)SCCOP(=O)(NCc1ccccc1)OC[C@H]1S[C@@H](n2ccc(=O)[nH]c2=O)[C@H](O)[C@@H]1O` (mixture of isomers) [3 mixture of diastereomers] the figure was over 10 µM.

Tested on in a further data set: not listed separately
Kind of data set: Cytotoxicity evaluation, CellTiter-Blue Cell Viability Assay. The data set is classed as cell-based. To be noted: human, Zluc cells (HCV replicon cells). As for the experimental part: For cytotoxicity evaluation, Zluc cells were treated with compound as described herein, and cell viability was monitored using the CellTiter-Blue Cell Viability Assay (Promega) by adding 20 μL of the assay solution to each well. The plates were then incubated at 37° C./5% CO2 for at least 3 hours.
For orientation: Alamar Blue is a resazurin reagent that responds to reducing activity.
For `CC(C)OC(=O)[C@H](C)NP(=O)(OC[C@H]1S[C@@H](n2ccc(=O)[nH]c2=O)[C@](C)(O)[C@@H]1O)Oc1ccccc1` (single isomer, unassigned) [1b diastereomer 1], the CC50 at 72 h is over 50 µM.
Still for that read-out and setting: the value for `CC(C)OC(=O)[C@H](C)N[P@@](=O)(OC[C@H]1S[C@@H](n2ccc(=O)[nH]c2=O)[C@H](O)[C@@H]1O)Oc1ccccc1` [Compound 2bi] was over 50 µM; that for `CC(C)OC(=O)[C@H](C)NP(=O)(OCCSC(=O)C(C)(C)C)OC[C@H]1S[C@@H](n2ccc(=O)[nH]c2=O)[C@H](O)[C@@H]1O` (single isomer, unassigned) [4b diastereomer 1] was over 50 µM.
On the same count and under the same terms, with `CC(C)OC(=O)[C@H](C)NP(=O)(OCCSC(=O)C(C)(C)C)OC[C@H]1S[C@@H](n2ccc(=O)[nH]c2=O)[C@H](O)[C@@H]1O` (mixture of isomers) [4b mixture of diastereomers] the figure was over 50 µM; with `CC(C)OC(=O)[C@H](C)N[P@](=O)(OC[C@H]1S[C@@H](n2ccc(=O)[nH]c2=O)[C@H](O)[C@@H]1O)Oc1ccccc1` [Compound 2bii], over 50 µM; with `CC(C)OC(=O)[C@@H](C)NP(=O)(OC[C@H]1S[C@@H](n2ccc(=O)[nH]c2=O)[C@H](O)[C@@H]1O)Oc1ccccc1` (mixture of isomers) [2a mixture of diastereomers], over 50 µM.
On the same count and under the same terms, the value for `CC(C)(C)C(=O)SCCOP(=O)(NCc1ccccc1)OC[C@H]1S[C@@H](n2ccc(=O)[nH]c2=O)[C@H](O)[C@@H]1O` (mixture of isomers) [3 mixture of diastereomers] was over 50 µM.
